The values below come from the supplement of paper PMC10307832.

The test system of the first test is SW 900. As to the kind of experiment: relative viability (nuclei count vs DMSO), 5 days (fraction); higher = more cells survive. The settings on record: first compound 0.6325 µM. Summed up:
(§1)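 Relative viability was taken as the ratio of nuclei in treated wells to nuclei in vehicle wells. Lung cancer cell lines in 1536-well plates received compounds by pin tool one day after seeding, either one drug alone or a fixed anchor-drug dose plus five library-drug doses (not always all listed) in √10 steps. Nuclei were counted on 4× images after 5 days of treatment, and values are medians of duplicate plates.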
Turning to `COCC1(CO)C(=O)C2CCN1CC2` (stereo not drawn) [PRIMA-1MET] + Cc1nc(Nc2ncc(C(=O)Nc3c(C)cccc3Cl)s2)cc(N2CCN(CCO)CC2)n1 [Dasatinib] (partner 0.075 µM), the relative viability amounted to 0.642.

The test is the same for the next values; noted with them: first compound 2 µM.
Regarding `COCC1(CO)C(=O)C2CCN1CC2` (stereo not drawn) [PRIMA-1MET] + Cc1cc(Nc2cc(N3CCN(C)CC3)nc(Sc3ccc(NC(=O)C4CC4)cc3)n2)n[nH]1 [Tozasertib] (partner 0.1 µM), the relative viability was determined as 0.524.

The compound `COCC1(CO)C(=O)C2CCN1CC2` (stereo not drawn) [PRIMA-1MET] + COc1cc2c(Oc3ccc(NC(=O)C4(C(=O)Nc5ccc(F)cc5)CC4)cc3F)ccnc2cc1OCCCN1CCOCC1 [Foretinib] (partner 0.25 µM) returned a relative viability of 0.699.

The compound `COCC1(CO)C(=O)C2CCN1CC2` (stereo not drawn) [PRIMA-1MET] + COc1cccc2cc(-c3nc([C@H]4CC[C@H](C(=O)O)CC4)n4ncnc(N)c34)[nH]c12 [OSI-027] (partner 0.5 µM) returned a relative viability of 0.471.

On to `COCC1(CO)C(=O)C2CCN1CC2` (stereo not drawn) [PRIMA-1MET] + N=C(N)NC(=N)NCCc1ccccc1 [Phenformin] (partner 250 µM), for which the relative viability was determined as 0.492.

Regarding `COCC1(CO)C(=O)C2CCN1CC2` (stereo not drawn) [PRIMA-1MET] + Cc1nc(Nc2ncc(C(=O)Nc3c(C)cccc3Cl)s2)cc(N2CCN(CCO)CC2)n1 [Dasatinib] (partner 0.075 µM), the relative viability is 0.386.

The same test, now with this note: first compound 6.325 µM.
Turning to `COCC1(CO)C(=O)C2CCN1CC2` (stereo not drawn) [PRIMA-1MET] + Cc1cc(Nc2cc(N3CCN(C)CC3)nc(Sc3ccc(NC(=O)C4CC4)cc3)n2)n[nH]1 [Tozasertib] (partner 0.1 µM), the relative viability was 0.388.

Turning to `COCC1(CO)C(=O)C2CCN1CC2` (stereo not drawn) [PRIMA-1MET] + COc1cc2c(Oc3ccc(NC(=O)C4(C(=O)Nc5ccc(F)cc5)CC4)cc3F)ccnc2cc1OCCCN1CCOCC1 [Foretinib] (partner 0.25 µM), the relative viability was determined as 0.451.

`COCC1(CO)C(=O)C2CCN1CC2` (stereo not drawn) [PRIMA-1MET] + COc1cccc2cc(-c3nc([C@H]4CC[C@H](C(=O)O)CC4)n4ncnc(N)c34)[nH]c12 [OSI-027] (partner 0.5 µM) yielded a relative viability of 0.362.

`COCC1(CO)C(=O)C2CCN1CC2` (stereo not drawn) [PRIMA-1MET] + N=C(N)NC(=N)NCCc1ccccc1 [Phenformin] (partner 250 µM) gave a relative viability of 0.0861.

`COCC1(CO)C(=O)C2CCN1CC2` (stereo not drawn) [PRIMA-1MET] + Cc1nc(Nc2ncc(C(=O)Nc3c(C)cccc3Cl)s2)cc(N2CCN(CCO)CC2)n1 [Dasatinib] (partner 0.075 µM) returned a relative viability of 0.0491.

The test is the same for the next values; noted with them: first compound 20 µM.
Regarding `COCC1(CO)C(=O)C2CCN1CC2` (stereo not drawn) [PRIMA-1MET] + Cc1cc(Nc2cc(N3CCN(C)CC3)nc(Sc3ccc(NC(=O)C4CC4)cc3)n2)n[nH]1 [Tozasertib] (partner 0.1 µM), the relative viability came out at 0.084.

In the case of `COCC1(CO)C(=O)C2CCN1CC2` (stereo not drawn) [PRIMA-1MET] + COc1cc2c(Oc3ccc(NC(=O)C4(C(=O)Nc5ccc(F)cc5)CC4)cc3F)ccnc2cc1OCCCN1CCOCC1 [Foretinib] (partner 0.25 µM), the relative viability stood at 0.051.

`COCC1(CO)C(=O)C2CCN1CC2` (stereo not drawn) [PRIMA-1MET] + COc1cccc2cc(-c3nc([C@H]4CC[C@H](C(=O)O)CC4)n4ncnc(N)c34)[nH]c12 [OSI-027] (partner 0.5 µM) registered a relative viability of 0.0628.

Consider `COCC1(CO)C(=O)C2CCN1CC2` (stereo not drawn) [PRIMA-1MET] + N=C(N)NC(=N)NCCc1ccccc1 [Phenformin] (partner 250 µM), for which the relative viability worked out at 0.105.

As to `COCC1(CO)C(=O)C2CCN1CC2` (stereo not drawn) [PRIMA-1MET] + Cc1nc(Nc2ncc(C(=O)Nc3c(C)cccc3Cl)s2)cc(N2CCN(CCO)CC2)n1 [Dasatinib] (partner 0.075 µM), the relative viability was 0.0965.

A further test relates to A549. Described as above. The settings on record: first compound 0.2 µM. The gist of the method:
as §1
The compound `COCC1(CO)C(=O)C2CCN1CC2` (stereo not drawn) [PRIMA-1MET] + COc1cc2c(Oc3ccc(NC(=O)C4(C(=O)Nc5ccc(F)cc5)CC4)cc3F)ccnc2cc1OCCCN1CCOCC1 [Foretinib] (partner 0.25 µM) yielded a relative viability of 1.02.

In turn, `COCC1(CO)C(=O)C2CCN1CC2` (stereo not drawn) [PRIMA-1MET] + N=C(N)NC(=N)NCCc1ccccc1 [Phenformin] (partner 250 µM) returned a relative viability of 0.165.

Still in this test, the particulars now being: first compound 0.6325 µM.
The compound `COCC1(CO)C(=O)C2CCN1CC2` (stereo not drawn) [PRIMA-1MET] + COc1cc2c(Oc3ccc(NC(=O)C4(C(=O)Nc5ccc(F)cc5)CC4)cc3F)ccnc2cc1OCCCN1CCOCC1 [Foretinib] (partner 0.25 µM) gave a relative viability of 0.834.

Compound `COCC1(CO)C(=O)C2CCN1CC2` (stereo not drawn) [PRIMA-1MET] + N=C(N)NC(=N)NCCc1ccccc1 [Phenformin] (partner 250 µM) had a relative viability of 0.173.

The test is the same for the next values; noted with them: first compound 2 µM.
Compound `COCC1(CO)C(=O)C2CCN1CC2` (stereo not drawn) [PRIMA-1MET] + COc1cc2c(Oc3ccc(NC(=O)C4(C(=O)Nc5ccc(F)cc5)CC4)cc3F)ccnc2cc1OCCCN1CCOCC1 [Foretinib] (partner 0.25 µM) registered a relative viability of 1.07.

`COCC1(CO)C(=O)C2CCN1CC2` (stereo not drawn) [PRIMA-1MET] + N=C(N)NC(=N)NCCc1ccccc1 [Phenformin] (partner 250 µM) displayed a relative viability of 0.204.

Staying with this test, now noted: first compound 6.325 µM.
`COCC1(CO)C(=O)C2CCN1CC2` (stereo not drawn) [PRIMA-1MET] + COc1cc2c(Oc3ccc(NC(=O)C4(C(=O)Nc5ccc(F)cc5)CC4)cc3F)ccnc2cc1OCCCN1CCOCC1 [Foretinib] (partner 0.25 µM): the relative viability stood at 0.807.

The compound `COCC1(CO)C(=O)C2CCN1CC2` (stereo not drawn) [PRIMA-1MET] + N=C(N)NC(=N)NCCc1ccccc1 [Phenformin] (partner 250 µM) came in with a relative viability of 0.148.

The test is the same for the next values; noted with them: first compound 20 µM.
With `COCC1(CO)C(=O)C2CCN1CC2` (stereo not drawn) [PRIMA-1MET] + COc1cc2c(Oc3ccc(NC(=O)C4(C(=O)Nc5ccc(F)cc5)CC4)cc3F)ccnc2cc1OCCCN1CCOCC1 [Foretinib] (partner 0.25 µM), the relative viability amounted to 0.894.

Take `COCC1(CO)C(=O)C2CCN1CC2` (stereo not drawn) [PRIMA-1MET] + N=C(N)NC(=N)NCCc1ccccc1 [Phenformin] (partner 250 µM): the relative viability is 0.0121.

The subject of a further test is NCI-H838. The test is described as above. The settings on record: first compound 0.2 µM. Summed up:
as §1
`COCC1(CO)C(=O)C2CCN1CC2` (stereo not drawn) [PRIMA-1MET] + Cc1cc(Nc2cc(N3CCN(C)CC3)nc(Sc3ccc(NC(=O)C4CC4)cc3)n2)n[nH]1 [Tozasertib] (partner 0.1 µM) had a relative viability of 0.291.

With `COCC1(CO)C(=O)C2CCN1CC2` (stereo not drawn) [PRIMA-1MET] + COc1cc2c(Oc3ccc(NC(=O)C4(C(=O)Nc5ccc(F)cc5)CC4)cc3F)ccnc2cc1OCCCN1CCOCC1 [Foretinib] (partner 0.25 µM), the relative viability turned out to be 1.23.
